Data on eight compounds can be found in patent US6806230B1, “Pyrimidine derivatives and herbicides containing them” (Kumiai Chemical Industry Co., Ltd., priority 1999, dated 2004).

SMILES strings stand for the structures.

Common to all, as to type: in vivo
The test system of one data set is barnyard grass (Ec). The data set is described as follows: Test Example 2: herbicidal effects by upland soil treatment. Details: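 0-5 growth inhibition grade; 5 = over 90%; 4 = 70-90%; 3 = 50-70%; 2 = 30-50%; 1 = 10-30%; 0 = under 10%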. Particulars: dose 100 g active ingredient per 10 ares, examined on the 21st day after treatment, standards of Table 44. The gist of the method:
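Pre-emergence test: barnyard grass and green foxtail sown in upland soil, then soil surface sprayed with wettable-powder formulation at 100 g active ingredient per 10 ares (100 l per 10 ares). Grown in greenhouse; herbicidal effect scored on a rating scale 21 days after treatment.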

In data set [1] the test system is monochoria (Mo). As to the kind of experiment: Test Example 1: herbicidal effects by flooded paddy field treatment. Also noted: herbicidal effects, Mo (monochoria):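 0-5 growth inhibition grade; 5 = over 90%; 4 = 70-90%; 3 = 50-70%; 2 = 30-50%; 1 = 10-30%; 0 = under 10%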. The following applies: for herbicidal effects, Mo (monochoria): dose 100 g active ingredient per 10 ares, examined on the 21st day after treatment, standards of Table 44. An outline of the steps: (§1)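 Dose: 100 g active ingredient per 10 ares as a diluted wettable powder dripped onto 3 cm floodwater, one day after sowing in puddled paddy soil. Scored by a standard rating scale 21 days later following greenhouse growth.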

A further data set has as its system green foxtail (Se). As to the kind of experiment: Test Example 2: herbicidal effects by upland soil treatment. The following applies: dose 100 g active ingredient per 10 ares, examined on the 21st day after treatment, standards of Table 44. The method, then: In a 80 cm^2 plastic pot, upland soil was filled, and seeds of barnyard grass (Ec) and green foxtail (Se) were sown and covered with soil. A wettable powder prepared in accordance with Formulation Example 1 was diluted with water and uniformly applied to the soil surface by means of a small size spray at a rate of 100 l per 10 ares, so that the dose of the active ingredient would be 100 g per 10 ares. Thereafter, cultivation was carried out in a green house, and on the 21st day after the treatment, the herbicidal effects were examined in accordance with the standards as identified in Table 44.

Data set [2] deals with barnyard grass (Eo). The data set is described as follows: Test Example 1: herbicidal effects by flooded paddy field treatment. The following applies: for herbicidal effects, Eo (barnyard grass): dose 100 g active ingredient per 10 ares, examined on the 21st day after treatment, standards of Table 44. Details: herbicidal effects, Eo (barnyard grass):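 0-5 growth inhibition grade; 5 = over 90%; 4 = 70-90%; 3 = 50-70%; 2 = 30-50%; 1 = 10-30%; 0 = under 10%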. An outline of the steps:
as §1

The subject of data set [3] is monochoria (Mo). As to the kind of experiment: Test Example 4: selectivity for a crop plant by flooded paddy field treatment. Details: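 0-5 growth inhibition grade; 5 = over 90%; 4 = 70-90%; 3 = 50-70%; 2 = 30-50%; 1 = 10-30%; 0 = under 10%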. The following applies: monochoria, dose 25 gai/10a, 21st day after treatment, index per Table 44. An outline of the steps:
(§2)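 Water-surface application in a greenhouse pot test: 25 g active ingredient per 10 ares, given as a diluted wettable powder one day after flooding, with visual rating of herbicidal effect three weeks post-treatment.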

The test system of another data set is rice (Or). Described as above. Details: scale not given here. Particulars: rice transplanted at second leaf stage, dose 25 gai/10a, 21st day after treatment, index per Table 44. The gist of the method:
as §2

Data set [4] relates to barnyard grass (Eo). The data set is described as above. Details: scale not given here. The following applies: barnyard grass, dose 25 gai/10a, 21st day after treatment, index per Table 44. The gist of the method: as §2
The mark [5] stands for this setting: dose 100 gai/10a, examined on 21st day after treatment, index 0-5 per Table 44.
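Throughout, for Herbicidal effect index, Eo: 0-5 growth inhibition grade; 5 = over 90%; 4 = 70-90%; 3 = 50-70%; 2 = 30-50%; 1 = 10-30%; 0 = under 10%.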
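Throughout, for Herbicidal effect index, Mo: 0-5 growth inhibition grade; 5 = over 90%; 4 = 70-90%; 3 = 50-70%; 2 = 30-50%; 1 = 10-30%; 0 = under 10%.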
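Throughout, for herbicidal effects, Se (green foxtail): 0-5 growth inhibition grade; 5 = over 90%; 4 = 70-90%; 3 = 50-70%; 2 = 30-50%; 1 = 10-30%; 0 = under 10%.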

For the compound `Cc1cc(CC(=O)N(C)C(c2cncnc2C(F)(F)F)C(C)C)ccc1Cl` (racemic) [Compound 1-120], the “herbicidal effects, Ec (barnyard grass)” value in the data set with barnyard grass (Ec) is reported as 5. In the data set with monochoria (Mo) [1] (setting [5]), the “Herbicidal effect index, Mo” value came to 5. In the data set on green foxtail (Se), the “herbicidal effects, Se (green foxtail)” value is listed as 4. The “Herbicidal effect index, Eo” value in the data set with barnyard grass (Eo) [2] (setting [5]) is recorded as 5. For the same compound, in the data set with monochoria (Mo) [3], the “Mo (herbicidal effect index)” value came to 5. In addition, the “Or (herbicidal effect index on crop)” value in the data set on rice (Or) was found to be 0. Also, the “Eo (herbicidal effect index)” value with barnyard grass (Eo) [4] came out at 5.

Turning to `CN(C(=O)Cc1ccccc1)C(c1ccc(F)cc1)c1cncnc1C(F)(F)F` (racemic) [1-217], the “herbicidal effects, Ec (barnyard grass)” value in the data set with barnyard grass (Ec) is 5. In the data set with monochoria (Mo) [1], the “herbicidal effects, Mo (monochoria)” value stood at 5. Besides, the “herbicidal effects, Se (green foxtail)” value in the data set on green foxtail (Se) is recorded as 5. In the data set on barnyard grass (Eo) [2], the “herbicidal effects, Eo (barnyard grass)” value came out at 5. Moreover, the “Mo (herbicidal effect index)” value with monochoria (Mo) [3] is recorded as 5. Moreover, the “Or (herbicidal effect index on crop)” value in the data set with rice (Or) is 1. Also, the “Eo (herbicidal effect index)” value in the data set on barnyard grass (Eo) [4] is 5.

Consider `Cc1cccc(OCC(=O)N(C)C(c2cncnc2C(F)(F)F)C(C)C)c1` (racemic) [Compound 1-135], for which the “herbicidal effects, Ec (barnyard grass)” value in the data set on barnyard grass (Ec) came to 5. In the data set with monochoria (Mo) [1], the “herbicidal effects, Mo (monochoria)” value is reported as 5. The “herbicidal effects, Se (green foxtail)” value in the data set with green foxtail (Se) is given as 5. Further, in the data set on barnyard grass (Eo) [2], the “herbicidal effects, Eo (barnyard grass)” value was 5. The “Mo (herbicidal effect index)” value with monochoria (Mo) [3] is listed as 5. Also, the “Or (herbicidal effect index on crop)” value with rice (Or) is 1. In addition, the “Eo (herbicidal effect index)” value in the data set on barnyard grass (Eo) [4] was 5.

On to `CN(C(=O)Cc1ccc(Br)cc1)C(c1cncnc1C(F)(F)F)C1CCCC1` (racemic) [Compound 1-140], for which, in the data set with barnyard grass (Ec), the “herbicidal effects, Ec (barnyard grass)” value is 5. For the same compound, in the data set with monochoria (Mo) [1], the “herbicidal effects, Mo (monochoria)” value is reported as 5. Besides, the “herbicidal effects, Se (green foxtail)” value in the data set on green foxtail (Se) amounted to 5. The “herbicidal effects, Eo (barnyard grass)” value with barnyard grass (Eo) [2] turned out to be 5. Further, in the data set with monochoria (Mo) [3], the “Mo (herbicidal effect index)” value was 5. Moreover, in the data set on rice (Or), the “Or (herbicidal effect index on crop)” value amounted to 0. In addition, the “Eo (herbicidal effect index)” value in the data set with barnyard grass (Eo) [4] was found to be 5.

Consider `Cc1ccc(CC(=O)N(C)C(c2cncnc2C(F)F)C(C)C)cc1` (racemic) [Compound 1-166], for which the “herbicidal effects, Ec (barnyard grass)” value in the data set with barnyard grass (Ec) was determined as 5. In the data set with monochoria (Mo) [1], the “herbicidal effects, Mo (monochoria)” value was found to be 5. Also, in the data set with green foxtail (Se), the “herbicidal effects, Se (green foxtail)” value amounted to 5. Also, in the data set with barnyard grass (Eo) [2], the “herbicidal effects, Eo (barnyard grass)” value came to 5. For the same compound, in the data set on monochoria (Mo) [3], the “Mo (herbicidal effect index)” value is given as 5. In addition, in the data set on rice (Or), the “Or (herbicidal effect index on crop)” value is 1. Further, in the data set on barnyard grass (Eo) [4], the “Eo (herbicidal effect index)” value was found to be 5.

Turning to `Cc1ccc(OCC(=O)N(C)C(c2cncnc2C(F)(F)F)C(C)C)cc1` (racemic) [Compound 1-136], the “herbicidal effects, Ec (barnyard grass)” value in the data set on barnyard grass (Ec) is listed as 5. Besides, the “herbicidal effects, Mo (monochoria)” value in the data set on monochoria (Mo) [1] came to 5. Besides, in the data set with green foxtail (Se), the “herbicidal effects, Se (green foxtail)” value is reported as 5. Further, in the data set with barnyard grass (Eo) [2], the “herbicidal effects, Eo (barnyard grass)” value came out at 5. In the data set with monochoria (Mo) [3], the “Mo (herbicidal effect index)” value is 5. In addition, in the data set with rice (Or), the “Or (herbicidal effect index on crop)” value came out at 1. Further, the “Eo (herbicidal effect index)” value with barnyard grass (Eo) [4] amounted to 5.

`CC(C)c1ncncc1C(C(C)C)N(C)C(=O)Cc1ccc(Cl)cc1` (racemic) [Compound 1-130]: in the data set with barnyard grass (Ec), the “herbicidal effects, Ec (barnyard grass)” value came out at 5. Further, the “herbicidal effects, Mo (monochoria)” value with monochoria (Mo) [1] is on record as 5. Moreover, the “herbicidal effects, Se (green foxtail)” value with green foxtail (Se) is listed as 5. In addition, the “herbicidal effects, Eo (barnyard grass)” value in the data set with barnyard grass (Eo) [2] turned out to be 5. For the same compound, in the data set on monochoria (Mo) [3], the “Mo (herbicidal effect index)” value came out at 5. The “Or (herbicidal effect index on crop)” value in the data set on rice (Or) turned out to be 1. The “Eo (herbicidal effect index)” value in the data set with barnyard grass (Eo) [4] worked out at 5.

For `Cc1ccc(CC(=S)N(C)C(c2cncnc2C(F)(F)F)C(C)C)cc1` (racemic) [Compound 1-145], the “herbicidal effects, Ec (barnyard grass)” value in the data set with barnyard grass (Ec) is recorded as 5. Besides, the “herbicidal effects, Mo (monochoria)” value with monochoria (Mo) [1] is on record as 5. Further, the “herbicidal effects, Se (green foxtail)” value in the data set on green foxtail (Se) came to 5. The “herbicidal effects, Eo (barnyard grass)” value in the data set on barnyard grass (Eo) [2] is given as 5. Besides, in the data set with monochoria (Mo) [3], the “Mo (herbicidal effect index)” value is 5. The “Or (herbicidal effect index on crop)” value in the data set with rice (Or) came to 1. In addition, in the data set on barnyard grass (Eo) [4], the “Eo (herbicidal effect index)” value worked out at 5.
